From patent publication US20180193412A1, “Method of In Vivo Treatment” (Hexima Limited, priority 2015, published 2018)

How the values were obtained:
[1] = tested on: T. interdigitale; experiment: Inhibition of growth of T. interdigitale by plant defensins (microtitre A595 antifungal assay); type: cell-based, Trichophyton interdigitale; conditions: ½ strength PDB, 30° C.
Description: (§1) The inhibitory effects of the plant defensins on the growth of Trichophyton rubrum, T. interdigitale, Microsporum fulvum and C. albicans (all obtained from the National Mycology Reference Centre, South Australia Pathology at the Women's and Children's Hospital, Adelaide, Australia) are measured essentially as described by Broekaert et al. (1990) FEMS Microbiol Lett 69:55-59.
(§2) Spores of T. rubrum, T. interdigitale and M. fulvum are isolated from sporulating fungus growing on ½ strength Sabouraud dextrose agar. Spores were removed from the plates by the addition of ½ strength potato dextrose broth (PDB). C. albicans cells are grown in Yeast Peptone Broth (YPD) for 16 h. Spore and cell concentrations are measured using a hemocytometer.
(§3) Antifungal assays are conducted in 96 well microtitre plates essentially as herein described. Wells are loaded with 20 μL of filter sterilized (0.22 Ξ m syringe filter, Millipore) defensin (10× stock for each final concentration) or water and 80 μL of 5×10^4 spores/mL (T. rubrum, T. interdigitale, M. fulvum) or 5,000 cells/mL (C. albicans) in ½ strength PDB. The plates are incubated at 30° C. Fungal growth is assayed by measuring optical density at 595 nm (A595) using a microtitre plate reader (SpectraMax Pro M2; Molecular Devices. Growth is allowed to proceed until the optical density (OD) of the fungus in the absence of any test defensin reached an OD of 0.2. Each test is performed in duplicate.

[2] = tested on: C. gattii; experiment: Inhibition of growth of C. gattii, Example 2 antifungal assay; type: cell-based; conditions: ½ strength PDB, 30° C., A595
Description: (§4) The inhibitory effects of the plant defensins on the growth of Candida albicans, Aspergillus fumigatus (obtained from the National Mycology Reference Centre, South Australia Pathology at the Women's and Children's Hospital, Adelaide, Australia), C. glabrata, C. tropicalis, A. flavus, A. niger, A. fumigants, Cryptococcus neoformans and C. gattii (obtained from Dee Carter, University of Sydney, New South Wales, Australia) are measured essentially as described by Broekaert et al. (1990) FEMS Microbiol Lett 69:55-59.
(§5) Spores of A. flavus. A. niger and A. fumigatus are isolated from sporulating fungus growing on ½ strength Sabouraud dextrose agar. Spores were removed from the plates by the addition of ½ strength potato dextrose broth (PDB). C. albicans, C. glabrata, C. tropicalis, C. neoformans and C. gattii cells are grown in Yeast Peptone Broth (YPD) for 16 h. Spore and cell concentrations are measured using a hemocytometer.
as §3, with “μm” for “Ξ m”, “(A. flavus, A. niger, A. fumigatus),” for “(T. rubrum, T. interdigitale, M. fulvum) or”, “albicans, C. glabrata, C. tropicalis) or 1×10^6 cells/mL (C. neoformans, C. gattii)” for “albicans)”

[3] = tested on: A. flavus; experiment: Inhibition of growth of A. flavus, Example 2 antifungal assay; type: cell-based; conditions: ½ strength PDB, 30° C., A595
Description: as §4, §5
as §3, with “μm” for “Ξ m”, “(A. flavus, A. niger, A. fumigatus),” for “(T. rubrum, T. interdigitale, M. fulvum) or”, “albicans, C. glabrata, C. tropicalis) or 1×10^6 cells/mL (C. neoformans, C. gattii)” for “albicans)”

[4] = tested on: Trichophyton rubrum, T. interdigitale, Microsporum fulvum and C. albicans; experiment: Inhibition assays of Example 1, summary across the range of fungal pathogens; type: cell-based; conditions: summary of Table 3, at the concentrations tested
Description: as §1, §2, §3

[5] = tested on: A. niger; experiment: Inhibition of growth of A. niger, Example 2 antifungal assay; type: cell-based; conditions: ½ strength PDB, 30° C., A595
Description: as §4, §5
as §3, with “μm” for “Ξ m”, “(A. flavus, A. niger, A. fumigatus),” for “(T. rubrum, T. interdigitale, M. fulvum) or”, “albicans, C. glabrata, C. tropicalis) or 1×10^6 cells/mL (C. neoformans, C. gattii)” for “albicans)”

[6] = tested on: A. fumigatus; experiment: Inhibition of growth of Aspergillus fumigatus, Example 2 antifungal assay; type: cell-based; conditions: ½ strength PDB, 30° C., A595
Description: as §4, §5
as §3, with “μm” for “Ξ m”, “(A. flavus, A. niger, A. fumigatus),” for “(T. rubrum, T. interdigitale, M. fulvum) or”, “albicans, C. glabrata, C. tropicalis) or 1×10^6 cells/mL (C. neoformans, C. gattii)” for “albicans)”

[7] = tested on: C. tropicalis; experiment: Inhibition of growth of C. tropicalis, Example 2 antifungal assay; type: cell-based; conditions: ½ strength PDB, 30° C., A595
Description: as §4, §5
as §3, with “μm” for “Ξ m”, “(A. flavus, A. niger, A. fumigatus),” for “(T. rubrum, T. interdigitale, M. fulvum) or”, “albicans, C. glabrata, C. tropicalis) or 1×10^6 cells/mL (C. neoformans, C. gattii)” for “albicans)”

[8] = tested on: T. albicans; experiment: Inhibition of growth of C. albicans by plant defensins, Example 1 (microtitre A595 antifungal assay); type: cell-based; conditions: Table 3; ½ strength PDB, 30° C., A595
Description: as §1, §2, §3

[9] = tested on: C. albicans; experiment: Inhibition of growth of Candida albicans, Example 2 antifungal assay; type: cell-based; conditions: Table 4; ½ strength PDB, 30° C., A595
Description: as §4, §5
as §3, with “μm” for “Ξ m”, “(A. flavus, A. niger, A. fumigatus),” for “(T. rubrum, T. interdigitale, M. fulvum) or”, “albicans, C. glabrata, C. tropicalis) or 1×10^6 cells/mL (C. neoformans, C. gattii)” for “albicans)”

[10] = tested on: M. fulvum; experiment: Inhibition of growth of Microsporum fulvum by plant defensins (microtitre A595 antifungal assay); type: cell-based; conditions: ½ strength PDB, 30° C., A595
Description: as §1, §2, §3

[11] = tested on: C. neoformans; experiment: Inhibition of growth of Cryptococcus neoformans, Example 2 antifungal assay; type: cell-based; conditions: ½ strength PDB, 30° C., A595
Description: as §4, §5
as §3, with “μm” for “Ξ m”, “(A. flavus, A. niger, A. fumigatus),” for “(T. rubrum, T. interdigitale, M. fulvum) or”, “albicans, C. glabrata, C. tropicalis) or 1×10^6 cells/mL (C. neoformans, C. gattii)” for “albicans)”

[12] = tested on: C. glabrata; experiment: Inhibition of growth of C. glabrata, Example 2 antifungal assay; type: cell-based; conditions: ½ strength PDB, 30° C., A595
Description: as §4, §5
as §3, with “μm” for “Ξ m”, “(A. flavus, A. niger, A. fumigatus),” for “(T. rubrum, T. interdigitale, M. fulvum) or”, “albicans, C. glabrata, C. tropicalis) or 1×10^6 cells/mL (C. neoformans, C. gattii)” for “albicans)”

[13] = tested on: T. rubrum; experiment: Inhibition of growth of Trichophyton rubrum by plant defensins (microtitre A595 antifungal assay); type: cell-based; conditions: ½ strength PDB, 30° C.
Description: as §1, §2, §3

[14] = tested on: E. coli; type: cell-based, Escherichia coli; conditions: for IC50: Mueller-Hinton Broth, 37° C., 18 hours, up to 20 μM, read-out: IC50 against E. coli; for Inhibition of growth of E. coli: at the concentrations tested (0.3125-20 μM)
Description: (§6) A single E. coli or B. subtilis colony was used to inoculate 5 ml of Luria-Bertani media and grown overnight at 37° C. The following day, the optical density of the culture was measured and the bacteria diluted to an optical density at 600 nm (OD600) of 0.01 in Mueller-Hinton Broth. Diluted E. coli or B. subtilis were added to 96-well plates with defensins at concentrations of 20 μM, 10 μM, 5 μM, 2.5 μM, 1.25 μM, 0.625 μM or 0.3125 μM. Plates were read at OD595 to obtain time zero data points. Plates were incubated at 37° C. for 18 hours before reading again at OD595 to assess the amount of bacterial growth.

[15] = tested on: B. subtilis; experiment: Inhibition of the growth of Bacillus subtilis (OD595, 18 hours); type: cell-based; conditions: for IC50: Mueller-Hinton Broth, 37° C., 18 hours, up to 20 μM, read-out: IC50 against B. subtilis; for Inhibition of growth of B. subtilis: at the concentrations tested (0.3125-20 μM)
Description: as §6

Substance	IC50 against T. interdigitale [1] [µg/mL]	IC50 against C. gattii [2] [µg/mL]	IC50 against A. flavus [3] [µg/mL]	Activity across the range of fungal pathogens [4]	IC50 against A. niger [5] [µg/mL]	IC50 against A. fumigatus [6] [µg/mL]	IC50 against C. tropicalis [7] [µg/mL]	IC50 against T. albicans [8] [µg/mL]	IC50 against C. albicans [9] [µg/mL]	IC50 against M. fulvum [10] [µg/mL]	IC50 against C. neoformans [11] [µg/mL]	IC50 against C. glabrata [12] [µg/mL]	IC50 against T. rubrum [13] [µg/mL]	IC50 [14] [µM]	IC50 [15] [µM]	Inhibition of growth of E. coli [14]	Inhibition of growth of B. subtilis [15]
HXL035: Class I plant defensin from Picramnia pentandra (KVCTKPSKFFKGLCGFDRDCTVACKKEGLASGFCQNKGFFNVVCVCRKPC; HXL035 Picramnia pentandra)	1	20	25	most effective	6	7.5	6	18	18	2	5	10	2	–	–	–	–
HXL015: Class I plant defensin from Oryza sativa (RHCLSQSHRFKGMCVSSNNCANVCRTESFPDGECKSHGLERKCFCKKVC; HXL015 Oryza sativa)	3.5	–	–	intermediate activity	–	–	–	–	5	12.5	–	–	10	–	–	–	–
HXL012: Class I plant defensin from Amaranthus retroflexus (RMCKAPSKLFRGMCGIRDSNCDSVCRAEGMAAGDCHGLRRRCICSRPC; HXL012 Amaranthus retroflexus)	2	38	45	intermediate activity	12.5	15	10	42	42	18	8	>100	2	> 20	20	–	–
HXL005: Class I plant defensin from Taraxcum kok-saghyz (KMCQTTSHAFSCVNDSGCSGSCEKQGFASGKCDGVRRRCTCYKKC; HXL005 Taraxcum kok-saghyz)	3.5	14	25	most effective	7.5	11	12	22	22	5	5	11	3	> 20	> 20	did not inhibit the growth	did not inhibit the growth
HXL013: Class I plant defensin from Glycine max (KDCLTRRHGFQGRCLFDRQCAHVCRSDGFIGGQCRGPLRKCFCSRPC; HXL013 Glycine max)	–	22	>100	intermediate activity	>100	>100	12	20	20	5.5	9	25	22	> 20	10	–	–
NaD1: Solanaceous Class II plant defensin from Nicotiana alata (RECKTESNTFPGICITKPPCRKACISEKFTDGHCSKILRRCLCTKPC; NaD1 Nicotiana alata)	10	5	20	–	16	8	2.5	20	20	5.3	3	14	8	> 20	–	did not inhibit the growth	did not inhibit the growth
HXL004: Class I plant defensin from Nicotiana benthamiana (RTCESQSHRFKGLCFSRSNCASVCHTEGFNGGHCRGFRRRCFCTRHC; HXL004 Nicotiana benthamiana)	19	20	>100	intermediate activity	45	20	5	20	20	12	7	20	27.5	2.5	2.6	–	–
